What was measured:
aminopeptidase B = aminopeptidase B (Homo sapiens, UniProt Q9H4A4); settings: cited from earlier work
bleomycin hydrolase = target: T1, bleomycin hydrolase (Homo sapiens, UniProt Q13867); settings: cited from earlier work
T1 sequence (Q13867 1-455): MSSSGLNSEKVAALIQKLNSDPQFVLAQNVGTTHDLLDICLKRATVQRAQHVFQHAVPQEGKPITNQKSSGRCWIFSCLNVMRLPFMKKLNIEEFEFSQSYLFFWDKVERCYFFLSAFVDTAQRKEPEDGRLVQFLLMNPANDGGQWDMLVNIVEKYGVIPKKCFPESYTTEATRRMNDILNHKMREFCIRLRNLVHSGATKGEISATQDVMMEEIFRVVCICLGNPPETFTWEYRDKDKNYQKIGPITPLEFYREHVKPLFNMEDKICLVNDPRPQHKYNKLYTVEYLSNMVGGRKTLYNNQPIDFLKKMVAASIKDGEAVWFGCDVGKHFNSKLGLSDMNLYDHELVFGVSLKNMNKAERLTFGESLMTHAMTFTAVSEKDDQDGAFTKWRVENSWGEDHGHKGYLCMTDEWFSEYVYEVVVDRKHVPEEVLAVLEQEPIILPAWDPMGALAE

male Charles River rats = assay: D'Amour-Smith rat tail-flick procedure (radiant heat, 8 second cut-off), intraventricular injection; type: in vivo
Protocol: Intraventricular cannulae, made of 27-gauge stainless steel tubing, are implanted in 300-400 g. male Charles River rats under pentobarbital anesthesia. After a recovery period of at least one week, the rats are restrained in a wire-mesh cylindrical chamber so that the tip of the tail can be positioned at the focal point of a radiant heat source. After an acclimatistation period of 5 minutes, the lamp is turned on and an electric clock activated. Movement of the tip of the tail exposes a photocell to the lamp, which turns off the thermal stimulus and stops the clock. If a rat fails to move its tail within 8 seconds, the heat is automatically turned off to prevent blistering. The intensity of the lamp is adjusted in each case to produce at least three baseline tail-flick latencies of 2.5-4.5 seconds. Tests are initially made every 2 minutes, then every 5 minutes and finally every 15 minutes.
Initially, using the above outlined procedure, the effects of intraventricularly administered leucine-enkephalin are tested in rats according to the above procedure.
The rat tail flick procedure is repeated, first by the simultaneous intraventricular injection of both leucine-enkephalin and bestatin and then by the initial injection of bestatin followed one hour later by the injection of leucine-enkephalin.
The above procedure is repeated again, however, the bestatin is administered first and then one hour later the leucine-enkephalin is administered.
The effects of bestatin alone are tested in rats according to the rat tail flick procedure.

aminopeptidase B, sequence (Q9H4A4 whole entry, species assumed): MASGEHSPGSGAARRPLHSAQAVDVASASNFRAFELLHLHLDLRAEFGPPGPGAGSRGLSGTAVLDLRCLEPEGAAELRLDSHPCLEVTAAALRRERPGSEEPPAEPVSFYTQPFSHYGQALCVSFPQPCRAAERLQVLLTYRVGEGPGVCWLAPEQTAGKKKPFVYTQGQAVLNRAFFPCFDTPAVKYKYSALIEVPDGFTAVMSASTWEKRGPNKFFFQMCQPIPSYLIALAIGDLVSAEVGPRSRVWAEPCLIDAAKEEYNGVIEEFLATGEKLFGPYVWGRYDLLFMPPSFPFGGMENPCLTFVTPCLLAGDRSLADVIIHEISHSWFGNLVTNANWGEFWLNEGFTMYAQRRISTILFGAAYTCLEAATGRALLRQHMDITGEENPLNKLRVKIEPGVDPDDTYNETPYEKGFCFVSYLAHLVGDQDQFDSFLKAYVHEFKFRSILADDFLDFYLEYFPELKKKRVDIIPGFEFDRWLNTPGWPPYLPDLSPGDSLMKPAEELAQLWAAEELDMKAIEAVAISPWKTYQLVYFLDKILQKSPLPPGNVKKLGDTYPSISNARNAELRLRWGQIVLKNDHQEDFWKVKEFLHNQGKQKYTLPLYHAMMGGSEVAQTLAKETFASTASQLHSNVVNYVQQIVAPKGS

CC(C)C[C@H](NC(=O)[C@@H](O)[C@H](N)Cc1ccccc1)C(=O)O [bestatin, [(2S,3R)-3-amino-2-hydroxy-4-phenylbutanoyl]-L-leucine]
Inhibition of aminopeptidase B (aminopeptidase B): inhibitors
Inhibition of bleomycin hydrolase (bleomycin hydrolase): inhibitors
Tail-flick latency (male Charles River rats; 200 μg bestatin alone into lateral ventricle, Rat 1, 2 min): 4.92 s
Tail-flick latency (male Charles River rats; 200 μg bestatin alone into lateral ventricle, Rat 1, 4 min): 7.36 s
Tail-flick latency (male Charles River rats; 200 μg bestatin into lateral ventricle, 200 μg leucine-enkephalin one hour later, 1 rat, 2 min after leucine-enkephalin): 8.00 s
Tail-flick latency (male Charles River rats; 200 μg bestatin into lateral ventricle, 200 μg leucine-enkephalin one hour later, 1 rat, 4 min after leucine-enkephalin): 8.00 s
Tail-flick latency (male Charles River rats; 200 μg bestatin into lateral ventricle, 200 μg leucine-enkephalin one hour later, 1 rat, 6 min after leucine-enkephalin): 8.00 s
Tail-flick latency (male Charles River rats; 200 μg bestatin into lateral ventricle, 200 μg leucine-enkephalin one hour later, 1 rat, 8 min after leucine-enkephalin): 8.00 s
Tail-flick latency (male Charles River rats; 200 μg bestatin into lateral ventricle, 200 μg leucine-enkephalin one hour later, 1 rat, 10 min after leucine-enkephalin): 8.00 s
Tail-flick latency (male Charles River rats; 200 μg bestatin into lateral ventricle, 200 μg leucine-enkephalin one hour later, 1 rat, 12 min after leucine-enkephalin): 8.00 s
Tail-flick latency (male Charles River rats; 200 μg bestatin into lateral ventricle, 200 μg leucine-enkephalin one hour later, 1 rat, 14 min after leucine-enkephalin): 8.00 s
Tail-flick latency (male Charles River rats; 200 μg bestatin into lateral ventricle, 200 μg leucine-enkephalin one hour later, 1 rat, 19 min after leucine-enkephalin): 8.00 s
Tail-flick latency (male Charles River rats; 200 μg bestatin into lateral ventricle, 200 μg leucine-enkephalin one hour later, 1 rat, 24 min after leucine-enkephalin): 8.00 s
Tail-flick latency (male Charles River rats; 200 μg bestatin into lateral ventricle, 200 μg leucine-enkephalin one hour later, 1 rat, 29 min after leucine-enkephalin): 8.00 s
Tail-flick latency (male Charles River rats; 200 μg bestatin into lateral ventricle, 200 μg leucine-enkephalin one hour later, 1 rat, 34 min after leucine-enkephalin): 8.00 s
Tail-flick latency (male Charles River rats; 200 μg bestatin into lateral ventricle, 200 μg leucine-enkephalin one hour later, 1 rat, 53 min after leucine-enkephalin): 8.00 s
Tail-flick latency (male Charles River rats; 200 μg bestatin into lateral ventricle, 200 μg leucine-enkephalin one hour later, 1 rat, 58 min after leucine-enkephalin): 8.00 s
Tail-flick latency (male Charles River rats; 200 μg bestatin into lateral ventricle, 200 μg leucine-enkephalin one hour later, 1 rat, 63 min after leucine-enkephalin): 6.07 s
Tail-flick latency (male Charles River rats; 200 μg bestatin into lateral ventricle, 200 μg leucine-enkephalin one hour later, 1 rat, 68 min after leucine-enkephalin): 2.62 s
Tail-flick latency (male Charles River rats; 200 μg leucine-enkephalin + 200 μg bestatin injected together into lateral ventricle, 1 rat, 2 min): 4.21 s
Tail-flick latency (male Charles River rats; 200 μg leucine-enkephalin + 200 μg bestatin injected together into lateral ventricle, 1 rat, 4 min): 5.75 s
Tail-flick latency (male Charles River rats; 200 μg leucine-enkephalin + 200 μg bestatin injected together into lateral ventricle, 1 rat, 8 min): 8.00 s
Tail-flick latency (male Charles River rats; 200 μg leucine-enkephalin + 200 μg bestatin injected together into lateral ventricle, 1 rat, 10 min): 8.00 s
Tail-flick latency (male Charles River rats; 200 μg leucine-enkephalin + 200 μg bestatin injected together into lateral ventricle, 1 rat, 12 min): 8.00 s
Tail-flick latency (male Charles River rats; 200 μg leucine-enkephalin + 200 μg bestatin injected together into lateral ventricle, 1 rat, 14 min): 8.00 s
Tail-flick latency (male Charles River rats; 200 μg leucine-enkephalin + 200 μg bestatin injected together into lateral ventricle, 1 rat, 19 min): 8.00 s
Tail-flick latency (male Charles River rats; 200 μg leucine-enkephalin + 200 μg bestatin injected together into lateral ventricle, 1 rat, 24 min): 8.00 s
Tail-flick latency (male Charles River rats; 200 μg leucine-enkephalin + 200 μg bestatin injected together into lateral ventricle, 1 rat, 29 min): 8.00 s
Tail-flick latency (male Charles River rats; 200 μg leucine-enkephalin + 200 μg bestatin injected together into lateral ventricle, 1 rat, 34 min): 8.00 s
Tail-flick latency (male Charles River rats; 200 μg leucine-enkephalin + 200 μg bestatin injected together into lateral ventricle, 1 rat, 39 min): 8.00 s
Tail-flick latency (male Charles River rats; 200 μg leucine-enkephalin + 200 μg bestatin injected together into lateral ventricle, 1 rat, 53 min): 8.00 s
Tail-flick latency (male Charles River rats; 200 μg leucine-enkephalin + 200 μg bestatin injected together into lateral ventricle, 1 rat, 58 min): 8.00 s
Tail-flick latency (male Charles River rats; 200 μg leucine-enkephalin + 200 μg bestatin injected together into lateral ventricle, 1 rat, 63 min): 4.65 s
Tail-flick latency (male Charles River rats; 200 μg leucine-enkephalin + 200 μg bestatin injected together into lateral ventricle, 1 rat, 68 min): 8.00 s
Tail-flick latency (male Charles River rats; 200 μg leucine-enkephalin + 200 μg bestatin injected together into lateral ventricle, 1 rat, 73 min): 4.95 s
Tail-flick latency (male Charles River rats; 200 μg leucine-enkephalin + 200 μg bestatin injected together into lateral ventricle, 1 rat, 78 min): 2.10 s
Analgesia induced by bestatin alone (male Charles River rats; 200 μg level, lateral ventricle, rat): does not appear to induce any clearcut analgesia
Tail-flick latency (male Charles River rats; 400 μg bestatin alone into lateral ventricle, Rat 1, 210 min): 8.00 s
Tail-flick latency (male Charles River rats; 400 μg bestatin alone into lateral ventricle, Rat 1, 225 min): 8.00 s
Tail-flick latency (male Charles River rats; 400 μg bestatin alone into lateral ventricle, Rat 1, 240 min): 8.00 s
Tail-flick latency (male Charles River rats; 400 μg bestatin alone into lateral ventricle, Rat 1, 255 min): 4.71 s
Tail-flick latency (male Charles River rats; 400 μg bestatin alone into lateral ventricle, Rat 2, 2 min): 2.16 s
Tail-flick latency (male Charles River rats; 400 μg bestatin alone into lateral ventricle, Rat 2, 4 min): 5.40 s
Tail-flick latency (male Charles River rats; 400 μg bestatin alone into lateral ventricle, Rat 2, 6 min): 4.62 s
Tail-flick latency (male Charles River rats; 400 μg bestatin alone into lateral ventricle, Rat 2, 8 min): 6.51 s
Tail-flick latency (male Charles River rats; 400 μg bestatin alone into lateral ventricle, Rat 2, 10 min): 8.00 s
Tail-flick latency (male Charles River rats; 400 μg bestatin alone into lateral ventricle, Rat 2, 12 min): 8.00 s
Tail-flick latency (male Charles River rats; 400 μg bestatin alone into lateral ventricle, Rat 2, 14 min): 8.00 s
Tail-flick latency (male Charles River rats; 400 μg bestatin alone into lateral ventricle, Rat 2, 16 min): 8.00 s
Tail-flick latency (male Charles River rats; 400 μg bestatin alone into lateral ventricle, Rat 2, 18 min): 8.00 s
Tail-flick latency (male Charles River rats; 400 μg bestatin alone into lateral ventricle, Rat 2, 20 min): 8.00 s
Tail-flick latency (male Charles River rats; 400 μg bestatin alone into lateral ventricle, Rat 2, 22 min): 8.00 s
Tail-flick latency (male Charles River rats; 400 μg bestatin alone into lateral ventricle, Rat 2, 24 min): 8.00 s
